Reference: patent US6479548B2, “Substituted stilbenes as glucose uptake enhancers” (Telik, Inc., priority 2000, dated 2002)
pEC50: −log10 of the molar value.

Legend:
[1] = target: T1, complete β-kinase domain of the human insulin receptor (CKD) (Homo sapiens, UniProt P06213); assay: 32P-CKD autophosphorylation assay; type: biochemical; settings: compound at 10 μM, phosphorylation of CKD expressed as % of the vehicle level; for activity at 10 µM: 10 min, read-out: Activity (% vs. control)
T1 construct: The complete β-kinase domain of the human insulin receptor (CKD); made in house
Protocol: The complete β-kinase domain of the human insulin receptor (CKD) was expressed in, and purified from, baculovirus. CKD (4.0 μg/ml), in a solution of 29 mM HEPES (pH 7.6), 0.05% Triton X-100, 10 mM MgCl2, 2 mM MnCl2 (50 μl final volume), is combined with 50 μM ATP, and 5 μCi ^32P-ATP (3000 Ci/mmol).

3T3 L1 fibroblasts = assay: Glucose transport activity (14C-2-deoxy-D-glucose uptake); type: cell-based; settings: concentration producing increase in glucose transport that is 50% of the response of 100 nM insulin (5.6 nM insulin as lower bound), tested 1 μM to 56 μM
Protocol: 3T3 L1 fibroblasts (ATCC) were grown in Dulbecco's modified Eagle's medium (DMEM) with 10% fetal bovine serum (FBS). The cells were plated at a density of 3×10^4 cells/well in 24-well plates. Two days after confluence was reached, the cells were treated for 3 days with 0.5 mM isobutylmethylxanthine (IBMX), 1 μM dexamethasone, and 1.7 μM insulin. The cells were then transferred to DMEM with 1.7 μM insulin for 2 more days. The cells were maintained in DMEM with 10% FBS for an additional 4 days. Finally, the cells were serum-starved overnight in 0. 1% bovine serum albumin (BSA) in DMEM. The following day, the medium was replaced with 150 mM NaCl, 1.7 mM KCl, 0.9 mM CaCl2, K2HPO4 (pH 7.4), to which was added either the experimental compound or its vehicle (DMSO). Insulin or its vehicle (0.01% BSA) was diluted in the assay buffer (containing test compound or vehicle, respectively) to a final concentration of 5.6 nM. After incubation for 30 min at 37° C., 5 μCi/ml ^14C-2-deoxy-D-glucose was added, and the incubation was continued for an additional 30 min at 37° C. The cells were then washed 3 times with ice-cold PBS/20 mM glucose and lysed in 250 μl of lysis buffer (50 mM HEPES pH 7.6, 1% Triton X-100) for 30 min at room temperature. Radioactivity in the lysate was quantified by scintillation counting.
Once ^14C-2-deoxy-D-glucose is transported into the cell, it is not released. Glucose transport is, therefore, proportional to the amount of radioactivity in the lysate. […] The concentration of compound necessary to produce an increase in glucose transport that is 50% of the response of 100 nM insulin (using 5.6 nM insulin as the lower bound) was calculated as the EC50 (effective concentration).

T1 sequence (P06213 1023-1298 limits assumed): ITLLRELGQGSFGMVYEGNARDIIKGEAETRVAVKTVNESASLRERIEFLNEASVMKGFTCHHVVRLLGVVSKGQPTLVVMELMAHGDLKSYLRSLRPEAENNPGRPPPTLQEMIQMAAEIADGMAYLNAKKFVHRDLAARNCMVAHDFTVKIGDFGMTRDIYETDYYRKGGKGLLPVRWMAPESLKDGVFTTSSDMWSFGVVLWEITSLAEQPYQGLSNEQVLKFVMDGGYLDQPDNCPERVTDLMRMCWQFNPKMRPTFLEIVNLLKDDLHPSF

| activity at 10 µM [1] | Compound | pEC50 (3T3 L1 fibroblasts; Mus musculus, 3T3-L1) | Activity (% vs. control) [1] | pEC50 (3T3 L1 fibroblasts) |
| --- | --- | --- | --- | --- |
| 117% | COc1cccc(C(=O)Nc2ccc(/C=C/c3ccccc3)cc2CC(=O)O)c1 [Compound 55, 2-{5-((1E)-2-phenylvinyl)-2-[(3-methoxyphenyl)carbonylamino]phenyl}acetic acid] |  |  |  |
| 80% | O=C(O)c1ccc(COc2cc(OCc3ccc(C(=O)O)cc3)cc(C(=O)Nc3ccc(/C=C/c4ccccc4)cc3C(=O)O)c2)cc1 [Compound 60, 5-((1E)-2-phenylvinyl)-2-({3,5-bis[(4-carboxyphenyl)methoxy]phenyl}carbonyl-amino)benzoic acid] |  |  |  |

Continued, compound first:

| Compound | activity at 10 µM [1] | pEC50 (3T3 L1 fibroblasts; Mus musculus, 3T3-L1) | Activity (% vs. control) [1] | pEC50 (3T3 L1 fibroblasts) |
| --- | --- | --- | --- | --- |
| O=C(O)Cc1ccc(/C=C/c2ccc(NC(=O)c3ccccc3C(=O)O)cc2)cc1 [Compound 24, 2-[N-(4-{(1E)-2-[4-(carboxymethyl)phenyl]vinyl}phenyl)carbamoyl]benzoic acid] | 126% | 3.38 |  |  |
| CNc1ccc(C(=O)Nc2ccc(/C=C/c3ccc(C(=O)O)cc3)cc2C(=O)O)cc1 [Compound 23, 5-[(1E)-2-(4-carboxyphenyl)vinyl]-2-{[4-(methylamino)phenyl]carbonylamino}-benzoic acid] | 112% | 4.01 |  |  |
| CC(=O)N(c1ccc(/C=C/c2ccc(OC(C)(C)C)c(C(=O)O)c2)cc1)c1ccc(N(C(C)=O)c2ccc(C(=O)O)cc2)cc1 [Compound 50, 5-{(1E)-2-[4-({4-[(4-carboxyphenyl)-N-methylcarbonylamino]phenyl}-N-methyl-carbonylamino)phenyl]vinyl}-2-(tert-butoxy)benzoic acid] | 105% |  |  |  |
| 5-((1E)-2-phenylvinyl)-2-({4-[(4-carboxyphenyl)-N-methylcarbonylamnino]phenyl}-N-methylcarbonylamino)benzoic acid [Compound 20] |  |  | 112% | 3.96 |
| COc1cccc(C(=O)Nc2ccc(/C=C/c3ccccc3)cc2C(=O)O)c1 [Compound 42, 5-((1E)-2-phenylvinyl)-2-[(3-methoxyphenyl)carbonylamino]benzoic acid] | 123% |  |  |  |
